Tested on: adhesion of hMSCs to HUVECs
Test: Adhesion assay: adhesion of hMSCs to endothelial cells (HUVECs)
Type: cell-based, human
Conditions: 0.5 μg/ml SDF-1 or 10 μM AMD3100
Text: Exposure of cells to hypoxia: HUVECs were exposed to hypoxia in a BD GasPak EZ Anaerobe Gas Generating Pouch System with an Indicator (BD Biosciences) as described (Potapova, 2007). As certified by the manufacturer, the Anaerobe Gas Generating Pouch System produces an atmosphere containing 10% carbon dioxide and 1% oxygen.
Adhesion Assay: Adhesion of hMSCs to endothelial cells was studied using hMSCs isolated from a monolayer or 3 day old hMSC spheroids. Cells were dissociated using 0.25% trypsin-EDTA solution (Lonza) for 15 min in the case of hMSC monolayers, or for 90 min in the case of the spheroids. Trypsinization was stopped by addition of trypsin inhibitor solution (Lonza). Isolated cells were washed with PBS, labeled with 2 μg/ml Calcein AM in HBSS for 45 min at 37 °C in a humidified atmosphere of 5% CO2, washed with HBSS and resuspended in DMEM supplemented with 5% fetal bovine serum. HUVECs were plated in 24 well plates and maintained in EBM-2 growth media for 2-3 days until they reached confluence. For the adhesion assay, EBM-2 media was replaced with 0.5 ml of DMEM supplemented with 5% fetal bovine serum. hMSCs (10,000 cells per well) were added to endothelial cells. The adhesion assay was performed in the presence 0.5 μg/ml SDF-1, 10 μM AMD3100 or without additives. Plates were placed on a rotation platform (30 rotations per min) and incubated for 30 min at 37° C. […] Fluorescence was acquired from the bottom of the plates using a POLARstar OPTIMA microplate reader at excitation/emission wavelengths of 485/520 nm. Background fluorescence was determined in the wells containing no hMSCs but a monolayer of endothelial cells. Total cell load was estimated as the fluorescence from non-washed wells with added hMSCs. A minimum six wells were used to estimate background fluorescence, total cell load or fluorescence from adhered cells. Percent of bound cells was calculated as a ratio between fluorescence of adhered cells and total cell load after subtraction of background fluorescence. […]

c1cc(CN2CCCNCCNCCCNCC2)ccc1CN1CCCNCCNCCCNCC1 [AMD3100]
effect on the adhesion of cells from the spheroids to endothelial cells preexposed to hypoxia (cells from 3 day old hMSC spheroids, HUVECs pre-exposed to hypoxia): no effect
stimulation of the adhesion of cells from the spheroids to normoxic endothelial cells (cells from 3 day old hMSC spheroids, normoxic HUVECs): 1.7±0.4 times
effect on the adhesion of hMSCs from a monolayer to endothelial cells (hMSCs from a monolayer, normoxic or pre-exposed to hypoxia HUVECs): Neither SDF-1 nor AMD3100 affected the adhesion

From US20110165128A1, “HOMING IN MESENCHYMAL STEM CELLS” (Columbia University in the City of New York, priority 2008, published 2011)
